Results from ChEMBL document CHEMBL4043266, “Pentacyclic triterpenes as α-glucosidase and α-amylase inhibitors: Structure-activity relationships and the synergism with acarbose” (Bioorg Med Chem Lett, 2017).

Key:
[1] = Inhibition of yeast alpha-glucosidase using 4-nitrophenyl-alpha-D-glucopyranoside as substrate preincubated for 15 mins followed by substrate addition measured after 20 mins; design: species or system Saccharomyces cerevisiae
[2] = biological target: T1, Pancreatic alpha-amylase (Sus scrofa, UniProt P00690); assay: Inhibition of porcine pancreatic alpha-amylase using starch as substrate preincubated for 15 mins followed by substrate addition measured after 10 mins by dinitrosalicylic acid reagent based assay
T1 sequence (P00690 whole entry): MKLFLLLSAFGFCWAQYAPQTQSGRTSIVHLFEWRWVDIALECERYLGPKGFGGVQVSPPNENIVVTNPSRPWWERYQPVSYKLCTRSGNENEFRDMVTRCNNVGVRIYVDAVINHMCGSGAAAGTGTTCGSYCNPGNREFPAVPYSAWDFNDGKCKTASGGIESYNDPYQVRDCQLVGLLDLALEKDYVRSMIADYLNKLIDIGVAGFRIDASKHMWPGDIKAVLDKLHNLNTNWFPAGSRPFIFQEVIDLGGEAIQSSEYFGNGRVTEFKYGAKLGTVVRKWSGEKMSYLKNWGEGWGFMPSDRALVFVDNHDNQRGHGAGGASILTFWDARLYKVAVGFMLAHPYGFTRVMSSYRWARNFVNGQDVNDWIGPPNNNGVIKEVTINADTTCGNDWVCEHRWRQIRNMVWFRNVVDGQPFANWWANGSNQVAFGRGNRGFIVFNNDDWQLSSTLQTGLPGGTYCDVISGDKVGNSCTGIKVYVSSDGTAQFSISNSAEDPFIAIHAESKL

In the case of `C[C@H]1[C@H](C)CC[C@]2(C(=O)O[C@@H]3O[C@H](CO[C@@H]4O[C@H](CO)[C@@H](O[C@@H]5O[C@@H](C)[C@H](O)[C@@H](O)[C@H]5O)[C@H](O)[C@H]4O)[C@@H](O)[C@H](O)[C@H]3O)CC[C@]3(C)C(=CC[C@@H]4[C@@]5(C)C[C@@H](O)[C@H](O)[C@@](C)(CO)[C@@H]5CC[C@]43C)[C@H]12`, the IC50 [1] is reported as over 200 µM and the IC50 [2] is reported as over 200 µM.

`C[C@H]1O[C@H](O[C@H]2[C@H](O)[C@@H](O)[C@@H](O[C@H]3[C@H](O)[C@@H](O)C(O)O[C@@H]3CO)O[C@@H]2CO)[C@H](O)[C@@H](O)[C@@H]1N[C@H]1C=C(CO)[C@@H](O)[C@H](O)[C@H]1O` (some centres not stated) [ACARBOSE] gave an IC50 [1] of 2480 µM.

In the case of `C[C@H]1[C@H](C)CC[C@]2(C(=O)O)CC[C@]3(C)C(=CC[C@@H]4[C@@]5(C)C[C@@H](O)[C@H](O)[C@@](C)(CO)[C@@H]5CC[C@]43C)[C@H]12` [ASIATIC ACID], the IC50 [1] is reported as 100 µM and the IC50 [2] is reported as over 200 µM.

For `C=C(C)[C@@H]1CC[C@]2(C(=O)O)CC[C@]3(C)[C@H](CC[C@@H]4[C@@]5(C)CC[C@H](O)C(C)(C)[C@@H]5CC[C@]43C)[C@@H]12` [BETULINIC ACID], the IC50 [1] was 14.9 µM and the IC50 [2] was over 200 µM.

Work on `C=C(C)[C@@H]1CC[C@]2(CO)CC[C@]3(C)[C@H](CC[C@@H]4[C@@]5(C)CC[C@H](O)C(C)(C)[C@@H]5CC[C@]43C)[C@@H]12` [BETULIN] yielded an IC50 [1] of 52.5 µM and an IC50 [2] of over 200 µM.

Compound `C[C@H]1[C@H](C)CC[C@]2(C(=O)O)CC[C@]3(C)C(=CC[C@@H]4[C@@]5(C)C[C@@H](O)[C@H](O)C(C)(C)[C@@H]5CC[C@]43C)[C@H]12` [COROSOLIC ACID] has an IC50 [1] of 17.2 µM and an IC50 [2] of 31.2 µM.

`CC1(C)[C@@H](O)CC[C@]2(C)[C@H]3C(=O)C=C4[C@@H]5C[C@@](C)(C(=O)O)CC[C@]5(C)CC[C@@]4(C)[C@]3(C)CC[C@@H]12` [ENOXOLONE] showed an IC50 [1] of over 200 µM and an IC50 [2] of over 200 µM.

For `CC1(C)[C@@H](O[C@H]2O[C@H](C(=O)O)[C@@H](O)[C@H](O)[C@H]2O[C@@H]2O[C@H](C(=O)O)[C@@H](O)[C@H](O)[C@H]2O)CC[C@]2(C)[C@H]3C(=O)C=C4[C@@H]5C[C@@](C)(C(=O)O)CC[C@]5(C)CC[C@@]4(C)[C@]3(C)CC[C@@H]12` [GLYCYRRHIZIN], the IC50 [1] was over 200 µM and the IC50 [2] was over 200 µM.

Compound `CC1(C)CC[C@]2(C(=O)O)CC[C@]3(C)C(=CC[C@@H]4[C@@]5(C)CC[C@H](O)C(C)(C)[C@@H]5CC[C@]43C)[C@@H]2C1` [OLEANOLIC_ACID] has an IC50 [1] of 35.6 µM.

For `C[C@H]1[C@H](C)CC[C@]2(C(=O)O)CC[C@]3(C)C(=CC[C@@H]4[C@@]5(C)CC[C@H](O)C(C)(C)[C@@H]5CC[C@]43C)[C@H]12` [URSOLIC ACID], the IC50 [1] was 12.1 µM.
